Data reported in publication PMC4779111, “A Human Renal Proximal Tubule Cell Line with Stable Organic Anion Transporter 1 and 3 Expression Predictive for Antiviral-Induced Toxicity” (The AAPS Journal, 2016).
Read-outs that look alike come from different tables or passages of the source.

What was measured:
OAT3 [1] = biological target: T1, OAT3 (Homo sapiens, UniProt Q8TCC7); assay: Inhibition of OAT-mediated fluorescein uptake in ciPTEC-OAT3
T1 sequence (Q8TCC7 1-542): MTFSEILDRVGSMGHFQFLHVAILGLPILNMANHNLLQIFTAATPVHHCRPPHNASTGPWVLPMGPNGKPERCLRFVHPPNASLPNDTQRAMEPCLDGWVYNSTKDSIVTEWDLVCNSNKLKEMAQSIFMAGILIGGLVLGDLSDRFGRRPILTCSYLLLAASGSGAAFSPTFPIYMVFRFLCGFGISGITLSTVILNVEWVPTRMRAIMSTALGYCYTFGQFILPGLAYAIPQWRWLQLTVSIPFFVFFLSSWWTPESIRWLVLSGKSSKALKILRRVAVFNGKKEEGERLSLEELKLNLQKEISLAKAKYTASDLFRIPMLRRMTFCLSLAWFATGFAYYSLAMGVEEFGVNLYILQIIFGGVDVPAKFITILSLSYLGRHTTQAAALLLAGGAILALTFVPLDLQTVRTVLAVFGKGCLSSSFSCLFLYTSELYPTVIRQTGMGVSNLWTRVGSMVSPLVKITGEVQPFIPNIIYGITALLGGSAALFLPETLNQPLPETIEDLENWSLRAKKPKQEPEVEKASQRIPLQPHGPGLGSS
Method: (§1) All chemicals were obtained from Sigma, unless stated otherwise. Uptake was stopped by washing three times with ice-cold HBSS (4°C).
(§2) Non-linear regression with variable slope constraining the top to 100% was used to fit the data after background subtraction with GraphPad Prism. Statistics was performed by two-way ANOVA (two-tailed, α = 0.05) using GraphPad Prism as well. All data is presented as mean ± SEM of at least three separate experiments (n = 3) performed in triplicate, unless stated otherwise.

ciPTEC-OAT1 = assay: MTT viability assay, ciPTEC-OAT1; assay type: cell-based, human
ciPTEC-OAT3 = assay: MTT viability assay, ciPTEC-OAT3; assay type: cell-based, human
Method: Cell toxicity was analyzed further in presence of MRP and BCRP efflux inhibitors MK571 (5 μM) and KO143 (10 μM).

ciPTEC parent = assay: MTT viability assay, ciPTEC parent; assay type: cell-based, human; details: 50 μM (10× Cmax) with MK571 and KO143
Method: Briefly, monolayers of ciPTEC (96-wells) were exposed to antivirals in serum-free medium (SFM) on day 6 of maturation.
as §2

[2] = plasma, maximal free plasma concentration, 47 (zidovudine), cited from earlier work
[3] = design: method as in PMID 19445515; details: cited from earlier work
OAT1 = biological target: T2, OAT1 (Homo sapiens, UniProt Q4U2R8); assay: Inhibition of OAT-mediated fluorescein uptake in ciPTEC-OAT1; assay type: cell-based; design: host or cells: ciPTEC (human conditionally immortalized proximal tubule epithelial cells), lentiviral transduction
T2 sequence (Q4U2R8 1-563): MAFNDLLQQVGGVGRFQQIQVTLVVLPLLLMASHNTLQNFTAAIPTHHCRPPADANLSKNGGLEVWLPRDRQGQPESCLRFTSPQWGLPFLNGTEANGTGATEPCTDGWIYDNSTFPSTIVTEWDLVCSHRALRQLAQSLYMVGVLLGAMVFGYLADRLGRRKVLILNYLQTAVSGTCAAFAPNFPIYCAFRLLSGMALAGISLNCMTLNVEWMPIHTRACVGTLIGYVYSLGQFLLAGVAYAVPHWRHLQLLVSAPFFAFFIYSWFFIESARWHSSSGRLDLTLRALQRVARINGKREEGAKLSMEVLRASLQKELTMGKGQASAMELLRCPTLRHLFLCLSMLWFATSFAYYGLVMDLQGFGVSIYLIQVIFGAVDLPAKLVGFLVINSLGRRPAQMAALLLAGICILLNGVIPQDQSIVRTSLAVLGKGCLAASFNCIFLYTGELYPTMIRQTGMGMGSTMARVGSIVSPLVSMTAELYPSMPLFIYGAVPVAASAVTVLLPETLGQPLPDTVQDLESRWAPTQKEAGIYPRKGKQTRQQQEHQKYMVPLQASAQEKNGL
Method: as §1, §2

OCT2 = OCT2 (Homo sapiens, UniProt O15244); details: ASP+ 1 µM, 60 min, HBSS 37°C; similar IC50 in ciPTEC parent, ciPTEC-OAT1, ciPTEC-OAT3 (p>0.05)
OCT2, sequence (O15244 whole entry): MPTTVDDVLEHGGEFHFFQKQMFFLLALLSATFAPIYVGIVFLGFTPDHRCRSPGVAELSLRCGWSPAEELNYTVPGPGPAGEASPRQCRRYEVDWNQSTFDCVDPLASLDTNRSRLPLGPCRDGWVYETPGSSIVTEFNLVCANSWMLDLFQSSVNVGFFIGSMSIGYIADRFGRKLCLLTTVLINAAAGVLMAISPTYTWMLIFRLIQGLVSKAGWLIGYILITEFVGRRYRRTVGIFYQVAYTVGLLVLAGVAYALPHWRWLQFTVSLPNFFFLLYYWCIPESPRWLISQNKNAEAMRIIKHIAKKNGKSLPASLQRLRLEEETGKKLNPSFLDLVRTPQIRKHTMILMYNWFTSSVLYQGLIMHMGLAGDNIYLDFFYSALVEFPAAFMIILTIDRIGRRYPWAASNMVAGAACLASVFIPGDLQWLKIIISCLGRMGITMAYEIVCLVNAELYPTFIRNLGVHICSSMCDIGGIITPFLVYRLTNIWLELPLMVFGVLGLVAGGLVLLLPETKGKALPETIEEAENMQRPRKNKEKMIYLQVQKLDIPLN
Method: Supplementary Figure S1. […] ASP+ uptake (1 […]
µM) by ciPTEC parent, ciPTEC-OAT1 and ciPTEC-OAT3 when co-incubated with OCT2-substrate […]
The lines represent the fit according to a one-site competition model. Values are expressed as ±SEM, (ciPTEC, n=3; ciPTEC- […]
OAT1, n=4; ciPTEC-OAT3, n=2.
(1 picture or pasted object on this page, not shown here)

OAT3 [4] = biological target: T1, OAT3; details: substrate estrone sulfate, Xenopus-OAT3; read-out: IC50 (literature); cited from earlier work
OAT3 [5] = biological target: T1, OAT3; design: host or cells: ciPTEC (human conditionally immortalized proximal tubule epithelial cells), lentiviral transduction; details: substrate sitagliptin, CHO-OAT3; read-out: IC50 (literature); cited from earlier work

Inhibition of ASP+ uptake at OCT2 (OCT2)	Compound	IC50 (OAT3 [1]) [µM]	Cell viability in presence of efflux inhibitors (ciPTEC-OAT1; ciPTEC-OAT1, 50 μM (10× Cmax) with MK571 and KO143)	Cell viability (MTT), concentration and time dependence (ciPTEC-OAT1; ciPTEC-OAT1, 24, 48 and 72 h)	Cell viability in presence of efflux inhibitors (ciPTEC-OAT3; ciPTEC-OAT3, 50 μM (10× Cmax) with MK571 and KO143)	Cell viability (MTT), concentration and time dependence (ciPTEC-OAT3; ciPTEC-OAT3, 24, 48 and 72 h)	Cell viability in presence of efflux inhibitors (ciPTEC parent)	Cmax ([2]; first-listed (lower) value per drug, ref 40 (adefovir), 42 (cidofovir), 45 (tenofovir)) [µM]	Cmax ([2]; second-listed (higher) value per drug, ref 41 (adefovir), 43 (cidofovir), 46 (tenofovir)) [µM]	Fraction eliminated via the urine without metabolic alterations [3] [%]	IC50 (OAT1) [µM]	IC50 (OAT3 [4]) [µM]	IC50 at 10 min (OAT1; human, ciPTEC-OAT1 cells (mature monolayers), probe fluorescein (1 μM)) [µM]	IC50 (OAT3 [5]) [µM]
	Cc1cn([C@H]2C[C@H](N=[N+]=[N-])[C@@H](CO)O2)c(=O)[nH]c1=O [Zidovudine, zidovudine]	21 ± 4	did not affect cell viability	did not affect cell viability	did not affect cell viability	did not affect cell viability	did not affect cell viability	5.5	6.6	23	14 ± 7			
significant inhibition	CN/C(=N/CCSCc1nc[nH]c1C)NC#N [Cimetidine, cimetidine]	215 ± 162										53	654 ± 291	79
